Assay results as given in publication PMC9833666, “Designing and identifying β-hairpin peptide macrocycles with antibiotic potential” (Science Advances, 2023).
Bridge positions count the residues as written; N and C are the ends. Peptide text beside a SMILES is read from it.

System: Escherichia coli W3110
Assay type: cell-based
Conditions: for Ec W3110 MIC MH: E. coli W3110, MH medium; for Ec W3110 MIC RPMI: E. coli W3110, RPMI medium
Protocol: MICs were performed by a modifiedClinical and Laboratory Standards Institute) procedure. […] Separately, E. coli W3110 or A. baumannii AB5075 was grown overnight in 5 ml of standard MH at 37°C. Cells from these cultures were diluted to a concentration of 5 × 10^5 to 6 × 10^5 cells/ml in either standard MH, MHII, RPMI, or fetal bovine serum, and 90 μl was added to each well of the 96-well plate containing diluted peptide. Plates were wrapped twice in parafilm and incubated at 37°C for 18 to 24 hours. Wells were examined by eye against wells with no bacteria for signs of growth. MICs were reported as the minimum concentration with no observable growth. In cases where triplicate samples differed, the concentration supported by the median of the three replicates was reported.

Row | Structure (SMILES) | Ec W3110 MIC MH [mg/L] | Ec W3110 MIC RPMI [mg/L] | W3110 MIC MH [mg/L] | W3110 MIC RPMI [mg/L]
1 | CC[C@H](C)[C@@H]1NC(=O)[C@H](CCCNC(=N)N)NC(=O)[C@H](C(C)C)NC(=O)[C@@H](N)CSSC[C@@H](C(=O)O)NC(=O)[C@H](C(C)C)NC(=O)[C@H](CCC(N)=O)NC(=O)[C@H](CC(C)C)NC(=O)[C@H]([C@@H](C)O)NC(=O)[C@H](C(C)C)NC(=O)[C@H](CCCCN)NC(=O)[C@H](C(C)C)NC(=O)[C@H](CCCNC(=N)N)NC(=O)[C@H](CCCNC(=N)N)NC(=O)CNC(=O)CNC(=O)[C@H](CC(N)=O)NC(=O)[C@H](CC(N)=O)NC(=O)[C@H](CC(C)C)NC(=O)[C@H](CCCNC(=N)N)NC1=O [SySA-53] (H-CVRIRLNNGGRRVKVTLQVC-OH; disulfide 1-20; N-terminus and C-terminus assumed) | 32 | 32 | 32 | 32
2 | CC[C@H](C)[C@@H]1NC(=O)[C@H](CCCNC(=N)N)NC(=O)[C@H](C(C)C)NC(=O)[C@@H](N)CSSC[C@@H](C(=O)O)NC(=O)[C@H](C(C)C)NC(=O)[C@H](CCC(N)=O)NC(=O)[C@H](C(C)C)NC(=O)[C@H](CO)NC(=O)[C@H](C(C)C)NC(=O)[C@H](CCCCN)NC(=O)[C@H](C(C)C)NC(=O)[C@H](CCCNC(=N)N)NC(=O)[C@H](CCCNC(=N)N)NC(=O)[C@H](CCCNC(=N)N)NC(=O)[C@H](CCCNC(=N)N)NC(=O)[C@H](CC(N)=O)NC(=O)[C@H](CC(N)=O)NC(=O)[C@H](C(C)C)NC(=O)[C@H](CCCNC(=N)N)NC1=O [SySA-62] (H-CVRIRVNNRRRRVKVSVQVC-OH; disulfide 1-20; N-terminus and C-terminus assumed) | 32 | 16 | 32 | 16
3 | CC[C@H](C)[C@@H]1NC(=O)[C@H](CCCNC(=N)N)NC(=O)[C@H](C(C)C)NC(=O)[C@H](CCCNC(=N)N)NC(=O)[C@H](CO)NC(=O)[C@H](CCCNC(=N)N)NC(=O)[C@H](CCCNC(=N)N)NC(=O)[C@H](CC(N)=O)NC(=O)[C@H](CC(N)=O)NC(=O)[C@H](C(C)C)NC(=O)[C@H](CCCNC(=N)N)NC(=O)[C@H]([C@@H](C)CC)NC(=O)[C@H]([C@@H](C)O)NC(=O)[C@H](C(C)C)NC(=O)[C@@H](N)CSSC[C@@H](C(=O)O)NC(=O)[C@H](C(C)C)NC(=O)[C@H](CCC(N)=O)NC(=O)[C@H](CC(C)C)NC(=O)[C@H](CO)NC1=O [SySA-63] (H-CVTIRVNNRRSRVRISLQVC-OH; disulfide 1-20; N-terminus and C-terminus assumed) | 256 | 64 | 256 | 64
4 | CC[C@H](C)[C@@H]1NC(=O)[C@H](CCCCN)NC(=O)[C@H](C(C)C)NC(=O)[C@H](CCCNC(=N)N)NC(=O)[C@H](CCCNC(=N)N)NC(=O)[C@H](CCCNC(=N)N)NC(=O)[C@H](CCCNC(=N)N)NC(=O)[C@H](CC(N)=O)NC(=O)[C@H](CC(N)=O)NC(=O)[C@H](CC(C)C)NC(=O)[C@H](CCCNC(=N)N)NC(=O)[C@H](C(C)C)NC(=O)[C@H](CCCNC(=N)N)NC(=O)[C@H](C(C)C)NC(=O)[C@@H](N)CSSC[C@@H](C(=O)O)NC(=O)[C@H](C(C)C)NC(=O)[C@H](CCC(=O)O)NC(=O)[C@H](C(C)C)NC(=O)[C@H](CO)NC1=O [SySA-65] (H-CVRVRLNNRRRRVKISVEVC-OH; disulfide 1-20; N-terminus and C-terminus assumed) | 64 | 16 | 64 | 16
5 | CC[C@H](C)[C@@H]1NC(=O)[C@H](CCCNC(=N)N)NC(=O)[C@H](CC(C)C)NC(=O)CNC(=O)[C@H](CCCNC(=N)N)NC(=O)[C@H](CCCNC(=N)N)NC(=O)[C@H](CCCNC(=N)N)NC(=O)[C@H](CC(N)=O)NC(=O)[C@H](CC(N)=O)NC(=O)[C@H](CC(C)C)NC(=O)[C@H](CCCNC(=N)N)NC(=O)[C@H]([C@@H](C)CC)NC(=O)[C@H](CCCNC(=N)N)NC(=O)[C@H](CC(C)C)NC(=O)[C@@H](N)CSSC[C@@H](C(=O)O)NC(=O)[C@H](C(C)C)NC(=O)[C@H](CCC(N)=O)NC(=O)[C@H](CC(C)C)NC(=O)[C@H](CO)NC1=O [SySA-72] (H-CLRIRLNNRRRGLRISLQVC-OH; disulfide 1-20; N-terminus and C-terminus assumed) | 32 | 8 | 32 | 8

The remaining lines, values ahead:

Row | Ec W3110 MIC MH [mg/L] | Ec W3110 MIC RPMI [mg/L] | W3110 MIC MH [mg/L] | W3110 MIC RPMI [mg/L] | Structure (SMILES)
6 | 256 | 32 | 256 | 32 | CC(C)C[C@@H]1NC(=O)CNC(=O)[C@H](CCCNC(=N)N)NC(=O)[C@H](CCCNC(=N)N)NC(=O)[C@H](CCCNC(=N)N)NC(=O)[C@H](CC(N)=O)NC(=O)[C@H](CC(N)=O)NC(=O)[C@H](CC(C)C)NC(=O)[C@H](CCCNC(=N)N)NC(=O)[C@H](C(C)C)NC(=O)[C@H](CCCNC(=N)N)NC(=O)[C@H](C(C)C)NC(=O)[C@@H](N)CSSC[C@@H](C(=O)O)NC(=O)[C@H](C(C)C)NC(=O)[C@H](CCC(N)=O)NC(=O)[C@H](CC(C)C)NC(=O)[C@H]([C@@H](C)O)NC(=O)[C@H](C(C)C)NC(=O)[C@H](CCCCN)NC1=O [SySA-45] (H-CVRVRLNNRRRGLKVTLQVC-OH; disulfide 1-20; N-terminus and C-terminus assumed)
7 |  |  | 128 | 32 | CC[C@H](C)[C@@H]1NC(=O)[C@H](CCCNC(=N)N)NC(=O)[C@H](C(C)C)NC(=O)[C@@H](N)CSSC[C@@H](C(=O)O)NC(=O)[C@H](C(C)C)NC(=O)[C@H](CCC(N)=O)NC(=O)[C@H](C(C)C)NC(=O)[C@H](CO)NC(=O)[C@H](C(C)C)NC(=O)[C@H](CCCCN)NC(=O)[C@H](C(C)C)NC(=O)CNC(=O)[C@H](CCCNC(=N)N)NC(=O)[C@H](CCCNC(=N)N)NC(=O)[C@H](CCCNC(=N)N)NC(=O)[C@H](CC(N)=O)NC(=O)[C@H](CC(N)=O)NC(=O)[C@H](CC(C)C)NC(=O)[C@H](CCCNC(=N)N)NC1=O [SySA-66] (H-CVRIRLNNRRRGVKVSVQVC-OH; disulfide 1-20)
8 | 16 | 32 | 16 | 32 | CC(C)C[C@@H]1NC(=O)[C@H](CCCNC(=N)N)NC(=O)[C@H](CCCNC(=N)N)NC(=O)[C@H](CCCNC(=N)N)NC(=O)CNC(=O)[C@H](CC(N)=O)NC(=O)[C@H](CC(N)=O)NC(=O)[C@H](CC(C)C)NC(=O)[C@H](CCCNC(=N)N)NC(=O)[C@H](C(C)C)NC(=O)[C@H](CCCNC(=N)N)NC(=O)[C@H](CC(C)C)NC(=O)[C@@H](N)CSSC[C@@H](C(=O)O)NC(=O)[C@H](C(C)C)NC(=O)[C@H](CCC(N)=O)NC(=O)[C@H](CC(C)C)NC(=O)[C@H](CO)NC(=O)[C@H](C(C)C)NC(=O)[C@H](CCCCN)NC1=O [SySA-71] (H-CLRVRLNNGRRRLKVSLQVC-OH; disulfide 1-20; N-terminus and C-terminus assumed)
